Measurements as given in paper doi:10.1101/2020.10.16.342121v1 (biorxiv, 2020).

Key:
[1] = molecular target: T1, human serum albumin (HSA) (Homo sapiens, UniProt P02768); assay: intrinsic fluorescence quenching titration; format: binding
[2] = molecular target: T1, human serum albumin (HSA); assay: thermal denaturation followed by intrinsic fluorescence; format: binding; settings: 10 mM PBS pH 7.4, 0.4 μM HSA, 40 μM DHLA, 37-87 °C

T1 sequence (P02768 25-609): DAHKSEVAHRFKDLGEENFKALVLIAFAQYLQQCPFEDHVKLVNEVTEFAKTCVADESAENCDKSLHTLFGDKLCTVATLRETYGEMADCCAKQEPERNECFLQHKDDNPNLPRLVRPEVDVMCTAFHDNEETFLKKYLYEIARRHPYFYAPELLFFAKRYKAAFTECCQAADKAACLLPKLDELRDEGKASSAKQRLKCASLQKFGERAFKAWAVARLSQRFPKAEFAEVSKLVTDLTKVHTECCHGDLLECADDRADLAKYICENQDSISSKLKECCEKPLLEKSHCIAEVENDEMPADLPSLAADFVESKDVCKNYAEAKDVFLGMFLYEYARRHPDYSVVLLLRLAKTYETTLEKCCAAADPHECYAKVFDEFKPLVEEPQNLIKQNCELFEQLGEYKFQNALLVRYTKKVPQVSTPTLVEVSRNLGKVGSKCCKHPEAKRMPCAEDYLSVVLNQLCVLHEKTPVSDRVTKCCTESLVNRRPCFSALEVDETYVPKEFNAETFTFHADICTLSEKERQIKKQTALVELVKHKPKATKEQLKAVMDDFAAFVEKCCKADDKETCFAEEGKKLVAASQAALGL

Kd [1]: 125 µM | Tm with ligand (HSA alone 68 °C) [2]: 70 °C
SMILES: O=C(O)CCCC[C@@H](S)CCS [dihydro-alpha-lipoic acid]
